Laboratory results: article PMC8080662 (Scientific Reports, 2021)

How the values were obtained:
LET-23 = LET-23 (Caenorhabditis elegans, UniProt P24348); assay: continuous enzyme-coupled kinase assay on lipid vesicles, percent inhibition; format: biochemical
PLK-1 = PLK-1 (Caenorhabditis elegans, UniProt P34331); assay: in vitro radiometric kinase assay ([γ-32P]ATP, GST-LMN-1 head substrate); format: biochemical
PLK-1, sequence (P34331 whole entry): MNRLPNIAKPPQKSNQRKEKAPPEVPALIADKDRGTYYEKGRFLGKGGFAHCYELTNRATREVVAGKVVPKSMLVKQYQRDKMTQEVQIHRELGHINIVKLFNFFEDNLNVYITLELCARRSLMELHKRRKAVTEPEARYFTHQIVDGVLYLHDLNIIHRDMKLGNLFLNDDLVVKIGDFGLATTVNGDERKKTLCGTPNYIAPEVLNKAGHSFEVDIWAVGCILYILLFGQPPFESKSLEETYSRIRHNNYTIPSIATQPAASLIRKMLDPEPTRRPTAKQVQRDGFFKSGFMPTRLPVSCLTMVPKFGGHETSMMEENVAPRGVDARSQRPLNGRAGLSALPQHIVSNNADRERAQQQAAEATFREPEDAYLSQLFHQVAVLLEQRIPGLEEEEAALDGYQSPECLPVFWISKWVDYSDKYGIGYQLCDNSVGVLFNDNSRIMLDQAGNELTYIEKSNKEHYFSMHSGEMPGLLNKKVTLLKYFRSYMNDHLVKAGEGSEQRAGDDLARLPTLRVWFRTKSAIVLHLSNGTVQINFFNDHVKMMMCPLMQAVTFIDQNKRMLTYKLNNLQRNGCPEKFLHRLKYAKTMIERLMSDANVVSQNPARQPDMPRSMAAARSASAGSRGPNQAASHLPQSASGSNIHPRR

LET-23, sequence (P24348 866-1191): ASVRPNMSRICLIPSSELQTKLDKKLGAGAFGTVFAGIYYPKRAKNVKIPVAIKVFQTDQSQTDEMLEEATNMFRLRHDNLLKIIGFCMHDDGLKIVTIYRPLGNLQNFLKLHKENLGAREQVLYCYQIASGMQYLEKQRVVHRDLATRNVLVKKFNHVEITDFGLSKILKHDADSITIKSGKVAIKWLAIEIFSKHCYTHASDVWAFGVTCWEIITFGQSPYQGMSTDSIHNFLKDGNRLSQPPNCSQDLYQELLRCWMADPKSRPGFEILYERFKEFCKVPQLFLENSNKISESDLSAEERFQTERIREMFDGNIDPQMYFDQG

| Structure (SMILES) | continuous enzyme-coupled kinase assay on lipid vesicles, percent inhibition (LET-23) | IC50 (PLK-1) [nM] |
| --- | --- | --- |
| CS(=O)(=O)CCNCc1ccc(-c2ccc3ncnc(Nc4ccc(OCc5cccc(F)c5)c(C(F)(F)F)c4)c3c2)o1 [GW576484X] | The ATOP and 4AQ scaffold compounds tested were able to inhibit LET-23 kinase activity |  |
| [O-][S+]1CCN(Cc2ccc(-c3ccc4ncnc(Nc5ccc(OCc6ccccc6)c(Cl)c5)c4c3)o2)CC1 [GW583373A] | The ATOP and 4AQ scaffold compounds tested were able to inhibit LET-23 kinase activity |  |
| C[C@@H](Oc1cc(-n2cnc3ccc(-c4ccncc4)cc32)sc1C(N)=O)c1ccccc1Cl [GSK483724A] |  | 91 |
| C[C@@H](Oc1cc(-n2cnc3cc(-c4ccncc4)ccc32)sc1C(N)=O)c1ccccc1Cl [GSK479719A] |  | 39 |
